Assay results: ChEMBL document CHEMBL1201862, “PubChem BioAssay data set” (2004)
The source made the active and inactive calls.

Key:
[1] = target: T1, Caspase-3 (Homo sapiens, UniProt P42574); assay: SAR Analysis of small molecule inhibitors of Sentrin-specific proteases (SENPs) using a Caspase-3 Selectivity assay. [Related pubchem assays (depositor defined):AID2540, AID2599, AID434973, AID489001]; type: functional
T1 sequence (P42574 whole entry): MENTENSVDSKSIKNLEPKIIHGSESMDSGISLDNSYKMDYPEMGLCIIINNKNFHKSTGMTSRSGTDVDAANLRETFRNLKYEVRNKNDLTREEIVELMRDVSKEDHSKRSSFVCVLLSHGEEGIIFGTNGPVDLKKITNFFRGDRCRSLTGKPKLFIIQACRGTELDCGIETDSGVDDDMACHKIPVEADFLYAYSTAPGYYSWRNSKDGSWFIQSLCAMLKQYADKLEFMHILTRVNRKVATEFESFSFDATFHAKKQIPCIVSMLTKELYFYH

[2] = target: ALK tyrosine kinase receptor (Homo sapiens, UniProt Q9UM73); type: functional;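 note: ALK tested as one member of a kinase panel screen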
[3] = target: Fibroblast growth factor receptor 1 (Homo sapiens, UniProt P11362); type: functional
[4] = target: 5'-AMP-activated protein kinase catalytic subunit alpha-1 (Homo sapiens, UniProt Q13131); type: functional
[5] = target: Mitogen-activated protein kinase 14 (Homo sapiens, UniProt Q16539); type: functional;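 note: part of a kinome-wide panel, MAPK14 entry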
[6] = target: Dual specificity mitogen-activated protein kinase kinase 1 (Homo sapiens, UniProt Q02750); assay: Navigating the Kinome. Panel member name: MAP2K1; type: functional
[7] = target: Mitogen-activated protein kinase kinase kinase kinase 4 (Homo sapiens, UniProt O95819); type: functional
[8] = target: Serine/threonine-protein kinase D3 (Homo sapiens, UniProt O94806); type: functional;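 note: determined within a kinase panel screen, with PRKCN as the panel member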
[9] = target: Dual specificity protein kinase CLK2 (Homo sapiens, UniProt P49760); type: functional
[10] = target: T2, Serine/threonine-protein kinase Chk1 (Homo sapiens, UniProt O14757); type: functional;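 note: measured as one member of a kinome-wide kinase profiling panel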
T2 sequence (O14757 whole entry): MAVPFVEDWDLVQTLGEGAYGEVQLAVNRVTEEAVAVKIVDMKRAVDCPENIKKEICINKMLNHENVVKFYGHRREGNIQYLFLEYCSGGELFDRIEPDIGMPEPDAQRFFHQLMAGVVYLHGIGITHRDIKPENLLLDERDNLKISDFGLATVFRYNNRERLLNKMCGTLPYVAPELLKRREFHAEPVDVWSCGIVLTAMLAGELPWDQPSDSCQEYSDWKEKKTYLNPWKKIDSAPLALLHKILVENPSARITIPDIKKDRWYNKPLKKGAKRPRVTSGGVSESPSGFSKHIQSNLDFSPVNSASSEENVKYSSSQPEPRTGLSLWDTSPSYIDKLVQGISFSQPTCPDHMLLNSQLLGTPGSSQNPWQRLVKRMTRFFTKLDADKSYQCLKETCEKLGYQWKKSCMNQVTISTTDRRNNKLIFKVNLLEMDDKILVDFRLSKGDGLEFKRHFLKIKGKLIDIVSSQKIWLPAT

[11] = target: Serine/threonine-protein kinase PAK 4 (Homo sapiens, UniProt O96013); type: functional;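 note: value obtained within a kinome profiling panel in which PAK4 was one of the panel members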
[12] = target: Dual specificity tyrosine-phosphorylation-regulated kinase 1A (Homo sapiens, UniProt Q13627); type: functional;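 note: measured against DYRK1A as one member of a broad kinome profiling panel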
[13] = target: Cyclin-dependent kinase 5 (Homo sapiens, UniProt Q00535); type: functional;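 note: CDK5 measured as one member of a kinase profiling panel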
[14] = target: T3, Matrix metalloproteinase-14 (Homo sapiens, UniProt P50281); assay: Dose Response confirmation of uHTS hits for a small molecule inhibitors of MT1-MMP activation in a fluorescence assay set 1.; type: functional
[15] = Luminescence Cell-Based Dose Response HTS to Identify Inhibitors of 5'UTR Stem-Loop Driven Prion Protein mRNA Translation in H4 Neuroglioblastoma Cells. [Related pubchem assays: 1827 (Project Summary), 1813 (Primary HTS)]; type: functional
[16] = target: T3, Matrix metalloproteinase-14; assay: SAR confirmation of uHTS hits for a small molecule inhibitors of MT1-MMP activation in a fluorescence assay.; type: functional
[17] = target: Melanocortin receptor 4 (Homo sapiens, UniProt P32245); assay: inhibitors of MC4R cAMP signaling – cell-based, TR-FRET, biased antagonists, dose response (AID 602298); type: functional;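 note: antagonist potency against agonist-stimulated cAMP production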
[18] = target: T4, Streptokinase A (Streptococcus pyogenes serotype M1, UniProt P10520); assay: viability-normalized secreted streptokinase activity reduction – plasminogen activation absorbance, OD405, dose response (AID 1914); type: functional, Streptococcus pyogenes M1 GAS;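 note: secreted streptokinase activity via plasminogen activation per viability signal from cell pellet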
T4 sequence (P10520 whole entry): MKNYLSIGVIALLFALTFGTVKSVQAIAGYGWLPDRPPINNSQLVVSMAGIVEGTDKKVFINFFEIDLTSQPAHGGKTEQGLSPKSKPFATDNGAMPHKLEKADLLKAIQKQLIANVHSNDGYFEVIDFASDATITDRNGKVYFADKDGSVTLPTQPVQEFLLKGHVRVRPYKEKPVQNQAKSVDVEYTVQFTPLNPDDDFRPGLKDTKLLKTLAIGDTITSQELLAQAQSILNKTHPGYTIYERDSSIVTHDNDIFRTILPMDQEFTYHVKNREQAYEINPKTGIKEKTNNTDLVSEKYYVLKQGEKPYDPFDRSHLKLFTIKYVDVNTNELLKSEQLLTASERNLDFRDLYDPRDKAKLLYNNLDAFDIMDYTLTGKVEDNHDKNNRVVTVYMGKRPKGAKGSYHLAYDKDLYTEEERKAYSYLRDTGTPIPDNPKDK

Mitogen-activated protein kinase kinase kinase kinase 4, sequence (O95819 whole entry): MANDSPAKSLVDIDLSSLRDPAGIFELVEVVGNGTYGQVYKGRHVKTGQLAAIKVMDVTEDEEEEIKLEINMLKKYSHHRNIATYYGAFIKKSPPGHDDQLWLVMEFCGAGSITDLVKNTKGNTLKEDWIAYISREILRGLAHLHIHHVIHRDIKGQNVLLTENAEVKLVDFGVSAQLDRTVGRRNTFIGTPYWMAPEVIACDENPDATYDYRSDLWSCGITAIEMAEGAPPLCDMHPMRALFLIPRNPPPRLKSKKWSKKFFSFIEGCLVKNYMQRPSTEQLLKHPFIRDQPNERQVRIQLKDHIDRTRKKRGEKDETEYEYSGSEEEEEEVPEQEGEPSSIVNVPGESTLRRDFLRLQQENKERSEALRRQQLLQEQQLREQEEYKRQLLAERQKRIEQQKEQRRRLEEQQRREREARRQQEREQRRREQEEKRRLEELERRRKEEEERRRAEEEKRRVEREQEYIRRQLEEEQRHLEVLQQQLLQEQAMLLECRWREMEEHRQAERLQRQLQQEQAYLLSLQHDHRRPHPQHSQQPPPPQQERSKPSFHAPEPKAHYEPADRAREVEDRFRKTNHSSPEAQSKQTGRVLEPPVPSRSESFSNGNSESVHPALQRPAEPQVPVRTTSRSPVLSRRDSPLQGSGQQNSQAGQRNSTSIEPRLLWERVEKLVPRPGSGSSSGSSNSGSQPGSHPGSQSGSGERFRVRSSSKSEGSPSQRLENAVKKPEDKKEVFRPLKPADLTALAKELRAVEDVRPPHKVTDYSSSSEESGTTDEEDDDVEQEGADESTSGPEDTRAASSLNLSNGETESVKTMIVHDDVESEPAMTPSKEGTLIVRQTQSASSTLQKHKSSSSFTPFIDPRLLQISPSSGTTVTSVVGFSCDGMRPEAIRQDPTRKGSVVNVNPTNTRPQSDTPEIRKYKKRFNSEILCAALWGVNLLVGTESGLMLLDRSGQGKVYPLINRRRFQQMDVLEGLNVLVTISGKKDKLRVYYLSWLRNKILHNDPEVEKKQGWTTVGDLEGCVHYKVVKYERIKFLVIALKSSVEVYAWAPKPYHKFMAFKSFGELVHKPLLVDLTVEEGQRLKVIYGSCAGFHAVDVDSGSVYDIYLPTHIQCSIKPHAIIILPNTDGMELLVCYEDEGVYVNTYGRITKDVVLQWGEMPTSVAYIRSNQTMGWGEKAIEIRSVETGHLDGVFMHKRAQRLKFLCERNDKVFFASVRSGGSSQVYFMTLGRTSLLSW
Fibroblast growth factor receptor 1, sequence (P11362 whole entry): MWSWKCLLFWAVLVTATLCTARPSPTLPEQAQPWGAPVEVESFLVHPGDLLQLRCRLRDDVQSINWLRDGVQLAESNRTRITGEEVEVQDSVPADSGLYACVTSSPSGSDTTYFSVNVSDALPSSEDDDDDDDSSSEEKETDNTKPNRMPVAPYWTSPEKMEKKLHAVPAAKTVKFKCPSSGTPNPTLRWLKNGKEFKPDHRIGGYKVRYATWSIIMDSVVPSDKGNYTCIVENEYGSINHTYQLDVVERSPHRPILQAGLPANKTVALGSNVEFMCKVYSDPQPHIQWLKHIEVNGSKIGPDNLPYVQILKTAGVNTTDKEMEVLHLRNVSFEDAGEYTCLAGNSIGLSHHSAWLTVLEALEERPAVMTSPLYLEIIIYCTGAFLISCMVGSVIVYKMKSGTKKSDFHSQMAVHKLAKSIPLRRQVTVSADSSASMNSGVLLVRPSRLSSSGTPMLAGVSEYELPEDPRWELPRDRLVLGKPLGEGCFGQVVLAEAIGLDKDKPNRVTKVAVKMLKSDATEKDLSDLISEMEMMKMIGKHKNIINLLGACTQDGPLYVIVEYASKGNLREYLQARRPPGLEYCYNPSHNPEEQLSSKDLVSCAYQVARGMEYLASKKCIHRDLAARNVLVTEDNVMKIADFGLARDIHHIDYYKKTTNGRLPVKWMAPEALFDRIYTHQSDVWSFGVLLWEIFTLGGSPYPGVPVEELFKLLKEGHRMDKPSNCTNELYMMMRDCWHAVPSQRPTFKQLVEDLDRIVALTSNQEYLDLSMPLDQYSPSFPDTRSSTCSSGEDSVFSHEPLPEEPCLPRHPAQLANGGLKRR
Serine/threonine-protein kinase PAK 4, sequence (O96013 whole entry): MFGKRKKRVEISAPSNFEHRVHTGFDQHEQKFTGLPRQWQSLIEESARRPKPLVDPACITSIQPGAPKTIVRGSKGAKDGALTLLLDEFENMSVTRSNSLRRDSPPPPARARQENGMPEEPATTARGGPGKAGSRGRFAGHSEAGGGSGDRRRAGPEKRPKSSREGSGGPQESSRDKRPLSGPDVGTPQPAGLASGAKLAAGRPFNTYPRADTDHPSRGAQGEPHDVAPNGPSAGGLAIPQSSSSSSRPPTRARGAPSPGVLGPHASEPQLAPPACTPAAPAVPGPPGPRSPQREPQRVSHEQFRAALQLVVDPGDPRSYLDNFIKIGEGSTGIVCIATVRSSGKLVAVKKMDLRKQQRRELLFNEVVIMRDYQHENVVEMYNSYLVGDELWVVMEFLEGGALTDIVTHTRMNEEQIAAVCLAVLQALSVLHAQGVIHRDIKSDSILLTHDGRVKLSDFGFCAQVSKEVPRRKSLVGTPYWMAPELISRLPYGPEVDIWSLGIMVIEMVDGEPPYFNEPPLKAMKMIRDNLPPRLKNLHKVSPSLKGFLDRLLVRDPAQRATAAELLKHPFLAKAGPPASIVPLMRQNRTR
5'-AMP-activated protein kinase catalytic subunit alpha-1, sequence (Q13131 whole entry): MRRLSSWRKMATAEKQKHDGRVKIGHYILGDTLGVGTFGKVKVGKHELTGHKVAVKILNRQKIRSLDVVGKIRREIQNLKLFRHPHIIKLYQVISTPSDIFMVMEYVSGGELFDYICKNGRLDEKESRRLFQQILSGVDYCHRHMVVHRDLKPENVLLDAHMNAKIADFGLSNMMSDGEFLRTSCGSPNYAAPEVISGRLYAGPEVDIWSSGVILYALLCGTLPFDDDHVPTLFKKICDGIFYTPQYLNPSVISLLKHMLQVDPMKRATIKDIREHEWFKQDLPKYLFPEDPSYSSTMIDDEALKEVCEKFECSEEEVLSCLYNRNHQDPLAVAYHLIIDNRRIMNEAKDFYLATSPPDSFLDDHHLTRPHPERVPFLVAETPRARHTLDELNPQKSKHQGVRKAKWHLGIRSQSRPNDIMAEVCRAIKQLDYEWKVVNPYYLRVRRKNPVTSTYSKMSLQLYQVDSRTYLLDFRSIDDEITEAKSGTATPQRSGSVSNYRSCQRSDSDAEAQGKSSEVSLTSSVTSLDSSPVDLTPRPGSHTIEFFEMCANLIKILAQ
Melanocortin receptor 4, sequence (P32245 whole entry): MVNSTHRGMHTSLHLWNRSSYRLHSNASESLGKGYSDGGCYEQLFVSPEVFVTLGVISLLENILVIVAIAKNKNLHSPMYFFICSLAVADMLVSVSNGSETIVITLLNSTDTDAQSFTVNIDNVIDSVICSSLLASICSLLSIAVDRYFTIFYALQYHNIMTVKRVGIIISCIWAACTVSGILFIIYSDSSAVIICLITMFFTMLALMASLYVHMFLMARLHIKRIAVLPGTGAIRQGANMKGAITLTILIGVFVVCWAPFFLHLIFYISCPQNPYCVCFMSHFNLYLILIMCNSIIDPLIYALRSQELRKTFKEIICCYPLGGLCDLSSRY
Dual specificity mitogen-activated protein kinase kinase 1, sequence (Q02750 whole entry): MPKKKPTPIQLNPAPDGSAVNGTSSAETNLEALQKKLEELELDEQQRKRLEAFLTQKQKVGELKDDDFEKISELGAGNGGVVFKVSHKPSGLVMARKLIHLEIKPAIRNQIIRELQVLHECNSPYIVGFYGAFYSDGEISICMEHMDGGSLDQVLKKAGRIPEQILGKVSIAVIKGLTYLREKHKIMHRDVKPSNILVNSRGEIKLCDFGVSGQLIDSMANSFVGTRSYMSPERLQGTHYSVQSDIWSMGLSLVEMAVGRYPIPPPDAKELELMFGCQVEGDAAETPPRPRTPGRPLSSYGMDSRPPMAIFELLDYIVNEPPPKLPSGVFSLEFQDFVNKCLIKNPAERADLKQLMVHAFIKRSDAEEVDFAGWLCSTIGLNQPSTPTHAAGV
Serine/threonine-protein kinase D3, sequence (O94806 whole entry): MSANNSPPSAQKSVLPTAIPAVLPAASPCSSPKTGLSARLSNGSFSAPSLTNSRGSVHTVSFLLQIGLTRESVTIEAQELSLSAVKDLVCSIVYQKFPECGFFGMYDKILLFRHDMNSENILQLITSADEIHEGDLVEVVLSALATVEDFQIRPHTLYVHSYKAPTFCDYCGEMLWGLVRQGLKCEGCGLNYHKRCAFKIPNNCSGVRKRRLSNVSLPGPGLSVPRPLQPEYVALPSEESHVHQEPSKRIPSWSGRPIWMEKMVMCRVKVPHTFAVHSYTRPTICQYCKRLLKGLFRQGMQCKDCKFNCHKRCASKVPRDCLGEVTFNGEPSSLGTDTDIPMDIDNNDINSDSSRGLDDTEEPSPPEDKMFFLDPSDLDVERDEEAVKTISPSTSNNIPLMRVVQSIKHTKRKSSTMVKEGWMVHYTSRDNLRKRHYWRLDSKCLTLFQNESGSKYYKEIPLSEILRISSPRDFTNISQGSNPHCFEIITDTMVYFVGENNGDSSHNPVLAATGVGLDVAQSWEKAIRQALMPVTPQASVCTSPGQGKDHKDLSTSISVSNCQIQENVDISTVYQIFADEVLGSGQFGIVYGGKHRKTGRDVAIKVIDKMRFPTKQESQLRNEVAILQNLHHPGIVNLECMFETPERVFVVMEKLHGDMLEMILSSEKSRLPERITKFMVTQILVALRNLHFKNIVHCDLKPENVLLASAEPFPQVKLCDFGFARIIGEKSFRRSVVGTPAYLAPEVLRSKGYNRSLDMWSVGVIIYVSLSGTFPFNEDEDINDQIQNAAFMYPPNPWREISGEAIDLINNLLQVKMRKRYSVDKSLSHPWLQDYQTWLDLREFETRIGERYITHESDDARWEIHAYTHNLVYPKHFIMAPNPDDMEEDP

In the case of `Cc1ccc(NC(=O)COc2cccc(/C=C3\SC(=S)N(CCC(=O)O)C3=O)c2)cc1Cl`, the IC50 [1] is reported as > 99 µM (inactive).
In the case of `COc1cccc(C(C)NC(=O)c2ccc(-c3ccncc3)s2)c1` (stereo not drawn), the Ki [2] is reported as > 6.31 µM (inactive), the Ki [3] is reported as > 3.98 µM (inactive) and the Ki [4] is reported as > 3.16 µM (inactive). The Ki [5] was > 3.98 µM (inactive), the Ki [6] was > 3.16 µM (inactive) and the Ki [7] was 5.01 µM (active). The Ki [8] was > 3.98 µM (inactive), the Ki [9] was > 3.98 µM (inactive) and the Ki [10] was 0.0794 µM (active). The Ki [11] was > 5.01 µM (inactive), the Ki [12] was > 2 µM (inactive) and the Ki [13] was > 3.16 µM (inactive).
With `O=Nc1c(-c2c(O)[nH]c3cc(Br)ccc23)[nH]c2ccccc12` the IC50 [14] was 1.78 µM (active), the EC50 [15] was > 120 µM (not active) and the IC50 [16] was 8.89 µM (active). For the same compound, the IC50 [17] was 6.37 µM (active) and the EC50 [18] was 44.9 µM (active).
